Experimental data as given in patent US20100255994A1, “HERBICIDAL MIXTURE” (E.I. DU PONT DE NEMOURS AND COMPANY, priority 2007, published 2010).

Tested on: Digitaria nuda
Assay: Test A: postemergence greenhouse weed control, visual rating
Format: in vivo
Conditions: 7 DAT
Experimental: Plastic pots (10-cm square) were filled to the rim with a sandy loam soil having pH of 6.1, 1.4% organic matter and a cation exchange capacity (CEC) of 5.7 milliequivalents per 100 grams (meq/100 g). The soil was tamped firm to a uniform level of 2.5 cm below the rim of each pot. A measured amount of seeds of Digitaria nuda were scattered on the soil surface. Seeded pots were covered with approximately 50 mL of the same planting soil and tamped. The pots were then placed in a greenhouse and watered thoroughly 2-3 times daily as needed. A balanced fertilizer solution was injected into the watering system to provide 218 ppm of nitrogen. Artificial lighting was used to supplement natural light to produce a 14 h photoperiod. Greenhouse temperatures were targeted for 28.8° C. in the day and 19.8° C. at night.
When the D. nuda plants reached the 3-4-leaf growth stage (8-12 cm height), the pots were sorted into test units for herbicide application. Treatments were replicated three times. The herbicides were diluted in a measured amount of water and then mixed using a magnetic stir bar for 10 minutes before aliquots were taken to make individual treatment solutions. Diuron was in the form of the DuPont product KARMEX, which is a wettable granule formulation containing 80 weight % active ingredient. Hexazinone was in the form of the DuPont product VELPAR DF, which is a wettable granule formulation containing 75 weight % active ingredient. A mixture of hexazinone and diuron in 11:39 weight ratio was in the form of the DuPont product VELPAR-K (VELPAR-K4) 60 WG, which is a wettable granule formulation containing 13.2 weight % hexazinone and 46.8 weight % diuron active ingredients. A mixture of hexazinone and diuron in 1:8 weight ratio was in the form of the DuPont product VELPAR-K8 (marketed in Brazil as ADVANCE Herbicide), which is a wettable granule formulation containing 6.7 weight % hexazinone and 53.3 weight % diuron active ingredients. Topramezone was in the form of the AMVAC product IMPACT, which is a suspension concentrate formulation containing 29.7% active ingredient. These products were applied alone and in combinations. Application rates of diuron and hexazinone were […] and 210 g ai ha^−1, respectively. The application rates of the VELPAR-K4 mixture of hexazinone and diuron (132 g a.i. hexazinone+468 g a.i. diuron/kg of formulated product) and VELPAR-K8 mixture of hexazinone and diuron (67 g a.i. hexazinone+533 g a.i. diuron kg of formulated product) were 1200 and 1800 g total a.i. ha^−1, respectively. Application rates of topramezone were 6, 12, 18 and 24 g a.i./ha. (“a.i.” means active ingredient.) The pots were then sprayed through a T-Jet 8002E nozzle using a stationary belt sprayer calibrated to deliver 281 L/ha at 276 kPa. Treatments were replicated three times.
The plants were returned to the greenhouse, and then control was visually evaluated relative to the control plants at 7 days after treatment (DAT). A numerical percent rating system was used to describe the response observed from each treatment on a scale of 0 to 100%, in which 0% indicates no response and 100% indicates plant death or near death. The reported results are the mean averages of the three replicates.
Colby's Equation was used to determine the herbicidal effects expected from the mixtures. Colby's Equation (Colby, S. R. “Calculating Synergistic and Antagonistic Responses of Herbicide Combinations,” Weeds, 15(1), pp 20-22 (1967)) calculates the expected additive effect of herbicidal mixtures, and for two active ingredients, or a pair of active ingredients (e.g., diuron+hexazinone) combined with an additional active ingredient (e.g., topramezone), is of the form: […]

Structure (SMILES): CN(C)c1nc(=O)n(C2CCCCC2)c(=O)n1C [Hexazinone]
- % Control Observed (hexazinone 210 g a.i./ha): 12%

Structure (SMILES): CN(C)C(=O)Nc1ccc(Cl)c(Cl)c1 [Diuron, N′-(3,4-dichlorophenyl)-N,N-dimethylurea]
- % Control Observed (diuron 1800 g a.i./ha): 20%

Structure (SMILES): Cc1c(C(=O)c2cnn(C)c2O)ccc(S(C)(=O)=O)c1C1=NOCC1 [Topramezone]
- % Control Observed (topramezone 6 g a.i./ha, 3-4-leaf stage, mean of 3 replicates): 27%
- % Control Observed (topramezone 12 g a.i./ha): 28%
- % Control Observed (topramezone 18 g a.i./ha): 33%
- % Control Observed (topramezone 24 g a.i./ha): 40%
